The results in this text go back to article PMC11267282, “Ultrashort‐Peptide‐Responsive Gene Switches for Regulation of Therapeutic Protein Expression in Mammalian Cells” (Advanced Science, 2024).

Data set [1] concerns engineered mammalian cells. As to the kind of experiment: Resazurin-based cell viability assay. As for the experimental part: Cells were incubated with resazurin (cat. no. R7017, Sigma‐Aldrich, USA) at a concentration of 50 µg ml^−1 for 2 h. Then fluorescence was assayed with a plate reader (Tecan Spark, Tecan Group Ltd., Switzerland) at excitation and emission wavelengths of 540 and 590 nm, respectively. The fluorescence intensity of non‐induced cells was set to 100%.

Data set [2] has as its system CD4 / CD8 T cells of immunized mice. Put plainly: T-cell response, intracellular cytokine staining. Format: in vivo, mouse. Particulars: FACS intracellular cytokine staining, spleen and draining lymph nodes, n = 3. On the procedure:
Mice were immunized at 2‐week intervals.
Isolated lymphocytes from spleens and lymph nodes were placed in a U‐bottom 96‐well plate and resuspended in 100 µl complete RPMI‐1640 medium, which contains FBS (10% v/v), HEPES (pH 7.2∼7.5, 1% v/v, Gibco), penicillin/streptomycin (1% v/v, Gibco), sodium pyruvate (1% v/v, Gibco) and 2‐mercaptoethanol (0.1% v/v, Gibco). Cells were stimulated with 1 µM cognate peptides or with Cell Stimulation Cocktail (a cocktail of phorbol 12‐myristate 13‐acetate (PMA) and ionomycin, Invitrogen) as positive controls at 37 °C for 4 h, in the presence of 10 µM brefeldin A (MedChemExpress) to inhibit cytokine secretion. Next, the cells were washed with 150 µl FACS buffer, and centrifuged with 1,500 g for 2 min. The supernatant was discarded and the cells were blocked with anti‐CD16/32 antibody (1:100, 93, 101302, BioLegend) in 20 µl/well FACS buffer at 4 °C for 15 min. Then 20 µl/well antibody cocktail containing anti‐CD3ε (1:500, 17A2, 100306, BioLegend), anti‐CD4 (1:500, RM4‐5, 100526, BioLegend), anti‐CD8β (1:500, YTS256.7.7, 126606, BioLegend), and anti‐CD45 (1:500, S18009F, 157211, BioLegend) was added to the cell mixture for 20 min incubation at 4 °C. […] Gate margins were determined on the basis of isotype controls and fluorescence‐minus‐one controls.

A further data set has as its system C57BL/6 mice. Put plainly: Antibody analysis for peptide immunogenicity. Particulars: s.c., three doses of 5 mg kg−1 at two-week intervals, with Freund's adjuvant, OD450, n = 3.
In data set [3] the test system is T1D mice with HEK-XIP implants. Put plainly: Serum inflammatory cytokines (ELISA). It counts as in vivo, mouse. The conditions noted are these: four weeks after implantation, n = 5; for Serum IFN-γ (significance) / Serum TNF-α (significance): vs non-induced; for Serum IL-6: undetectable. As for the experimental part: The concentrations of interferon gamma (IFN‐γ), interleukin‐6 (IL‐6), and tumor necrosis factor alpha (TNF‐α) in mouse serum were assessed by the use of specific enzyme‐linked immunosorbent assay (ELISA) kits. IFN‐γ levels were analyzed using the IFN gamma mouse ELISA kit (cat. no. ab282874, Abcam), IL‐6 levels were determined with the IL‐6 mouse ELISA kit (cat. no. ab100712, Abcam), and TNF‐α levels were quantified utilizing the TNF alpha mouse ELISA kit (cat. no. BMS607HS, ThermoFisher). Freund's Complete Adjuvant (cat. no.: 344289, Sigma‐Aldrich) and lipopolysaccharides (cat. no.: L2630‐10MG, Sigma‐Aldrich) were utilized to induce cytokine production as positive controls. Blood samples were collected from mice treated with adjuvant and LPS 24 hours post‐treatment. The quantification of cytokines from these groups was conducted using the same ELISA kit.

Data set [4] concerns HEK-293T cells. Put plainly: Constitutive recombinant SEAP production (pJH3). The conditions noted are these: pJH3-transfected, 10-250 µM, 48 h, n = 4. Format: cell-based, human. As for the experimental part:
(§1) HEK‐293T cells were seeded in a 10 cm diameter dish at a density of 2.5 × 10^5 cells/ml. After 24 h of culture, the cells were transfected with 35 µg of pJH3 (PhCMV‐SEAP‐pA) overnight, then resuspended and evenly distributed into two 24‐well plates. The treatment groups were treated with XIP at the indicated concentration. Samples were collected at successive time points for two days to quantify viable cells and SEAP production.
SEAP reporter levels in cell culture supernatants were quantified using a colorimetric assay. In brief, 20 µl of cell culture supernatant was mixed with 80 µl of PBS buffer (cat. no. 14190144, ThermoFisher) and heat‐inactivated at 65 °C for 30 min. Then 80 µl of 2x SEAP assay buffer (20 mM homoarginine, 1 mM MgCl2, 21% diethanolamine, pH 9.8) was mixed with 20 µl of substrate solution, and 100 µl of the buffer‐substrate mixture was added to 100 µl of the diluted heat‐inactivated sample. Absorbance at 405 nm was recorded using a plate reader (Tecan Spark, Tecan Group Ltd., Switzerland) for 30 min at 37 °C to determine the SEAP levels.

The nature of data set [5]: Membrane penetration inferred from intracellular gene switch activation. Particulars: HEK-293T with intracellular ComR switch; inferred from SEAP induction. Format: in vitro ADME. On the procedure:
(§2) Human embryonic kidney cells (HEK‐293T, ATCC: CRL‐11268), human telomerase‐immortalized mesenchymal stem cells (hMSC‐TERT),^[ [56] ^] human fibrosarcoma cells (HT‐1080, ATCC: CCL‐121), human cervical adenocarcinoma cells (HeLa, ATCC: CCL‐2), Chinese hamster ovary cells (CHO‐K1, ATCC: CCL‐61), baby hamster kidney cells (BHK‐21, ATCC: CCL‐10), and human liver cancer cells (Hep G2, ATCC: CRL‐11997) were cultured in Dulbecco's modified Eagle's medium (DMEM, cat. no. 52100–39, Thermo Fisher Scientific) containing 10% fetal bovine serum (FBS, cat. no. F7524, lot no. 022M3395, Sigma‐Aldrich) and 1% (v/v) streptomycin/penicillin (cat. no. L0022, Biowest). All mammalian cells were grown at 37 °C in a humidified atmosphere containing 5% CO2. For all transient transfections, 15 000 cells were seeded per well of a 96‐well plate (cat. no. 3599, Corning Inc. Life Sciences) overnight. Cells were transfected by mixing 100 ng of DNA and polyethyleneimine (PEI, 24765‐2, Polysciences) in a ratio of 1:4. […] The cell density was calculated using a cell counter (CellDrop BF Brightfield Cell Counter, DeNovix Inc.)
(§3) SEAP reporter levels in cell culture supernatants were quantified using a colorimetric assay. […] Absorbance at 405 nm was recorded using a plate reader (Tecan Spark, Tecan Group Ltd., Switzerland) for 30 min at 37 °C to determine the SEAP levels.

Data set [6] relates to HEK-293T cells. As to the kind of experiment: Cell growth kinetics of HEK-293 cells. Format: cell-based, human. The conditions noted are these: non-transformed HEK-293T, 10-250 µM, 48 h, n = 4. As for the experimental part: as §1
Data set [7] has as its system ComREXTRA (ComR-EpoR TM-IL-6RB). As to the kind of experiment: SEAP reporter assay, ComREXTRA-based synthetic receptor, transiently transfected HEK-293T. It counts as cell-based, Streptococcus vestibularis. The conditions noted are these: IL-6 50 ng/mL or XIP 50 μmol/L. On the procedure:
as §2, §3
On the technique in general: Reporter assays use an easily measured gene product as a stand-in for the process of interest.

“Also recorded” adds a separate entry of the source. Where a SMILES comes first, the peptide text is derived from it.

Method for C57BL/6 mice: Eight‐week‐old wild‐type male mice were immunized for peptide immunogenicity assessments. Briefly, peptide solution was premixed 1:1 with Freund's adjuvant in a total volume of 400 µl by thorough vigorous shaking. Then peptide/adjuvant mixes were injected subcutaneously in 30 min at a dose of 5 mg kg^−1. Mice were immunized at 2‐week intervals. Negative controls (mock‐immunized) were also included in the study. One week after the third dose of immunization, blood was sampled for antibody analysis.
For antibody analysis, the peptides were coated on the EIA/RIA plate (cat. no. 3590, Corning Inc. Life Sciences) in carbonate coating buffer (cat. no. CB01100, ThermoFisher) at 4 °C overnight. The next day the plate was blocked with 20% nonfat milk (cat. no. A0830,1000, AppliChem Panreac) for 24 h at 4 °C, and incubated with antibodies at the indicated dilution or at 37 °C for 1 h. Next, horseradish peroxidase‐linked anti‐mouse IgG (cat. no. LNA931V, GE Healthcare, USA) was added to the plate at a dilution of 1:1000 for 1 h at 37 °C. Between each step, the plate was washed with PBS at least three times. Then, 100 µl ultra TMB substrate solution (cat. no. 34028, ThermoFisher) was added to the plate at room temperature for 15 min, followed by the addition of 50 µl of stop solution (2 M H2SO4). The OD450 was measured by a plate reader (Tecan Spark, Tecan Group Ltd., Switzerland). Mouse anti‐HA antibody (cat. no. 901523, BioLegend, USA, 1:1000 dilution) was used as a positive control.

Consider `CC(C)[C@H](N)C(=O)N1CCC[C@H]1C(=O)N[C@@H](Cc1ccccc1)C(=O)N[C@@H](Cc1ccccc1)C(=O)N[C@@H](Cc1ccc(O)cc1)C(=O)N[C@@H](Cc1ccc(O)cc1)C(=O)O` [ID3] (H-VPFFYY-OH), for which the HEK-XIP cell viability entry in data set [1] (50 and 250 µmol/L, 24 h, n = 4) was “ns”. For the same molecule, in data set [2], the “Peptide-specific T-cell response” value is on record as “no peptide‐specific T‐cell response was detected”. Further, in the data set with C57BL/6 mice, the Antibody response result is given as “no detectable antibodies’ response”. Further, in the data set with C57BL/6 mice (listed as XIP_ID3), the Antibody response result was “ns”. Also, in data set [3], the “Serum IFN-γ (significance)” value is on record as “ns”, the “Serum TNF-α (significance)” value is “ns” and the “Serum IL-6” value is on record as “Below 0.82 pg/ml”.
Turning to `CC[C@H](C)[C@H](NC(=O)[C@H](CCSC)NC(=O)[C@H](Cc1ccccc1)NC(=O)[C@H](Cc1ccccc1)NC(=O)[C@@H]1CCCN1C(=O)[C@@H](N)C(C)C)C(=O)N[C@@H](Cc1ccc(O)cc1)C(=O)N[C@@H](Cc1ccc(O)cc1)C(=O)O` [XIP, sigX/comX-inducing peptide] (H-VPFFMIYY-OH), in data set [1] (ComREXTRA-expressing HEK-293T, 50/200/500 µmol/L, 24 h, n = 4), the “Cell viability under overstimulation” value was “ns and no significant difference of cell viability”. The “Cytotoxicity (result in words)” value in data set [1] (HEK-293T / HEK-XIP / mammalian cells, concentration range tested) is reported as “no significant impact on cell viability”. For the same molecule, the “Cell viability (significance)” value is reported as “ns” in data set [1] (engineered HEK-293T, ComR operator variants, 150 and 500 µmol/L, n = 4); “ns” in data set [1] (seven cell lines expressing ComREXTRA-based system, 250 μM, n = 4); “ns” in data set [1] (seven cell lines with first system (HEK-293T, hMSC-TERT, HT-1080, HeLa, CHO-K1, BHK21, HepG2), 250 μM, n = 4). Also, the “Peptide-specific T-cell response” value in data set [2] was “no peptide‐specific T‐cell response was detected”. In addition, the “Effect on constitutive SEAP production” value in the data set on HEK-293T cells [4] is “ns and negligible effect”. For the same molecule, in data set [5], the Membrane penetration entry is “penetration ability across the mammalian cell membrane; also recorded: efficiently traverses the mammalian cell membrane”. Further, in the data set on HEK-293T cells [6], the “Effect on growth kinetics” value is “ns and negligible effect”. Also, the Antibody response result in the data set with C57BL/6 mice is recorded as “no detectable antibodies’ response”; in the data set on C57BL/6 mice (listed as XIP_WT), “ns”. The “Serum IFN-γ (significance)” value in data set [3] was “ns”. Besides, in data set [3], the “Serum TNF-α (significance)” value is “ns”. Further, the “Serum IL-6” value in data set [3] is “Below 0.82 pg/ml”.
In the case of interleukin 6 [IL-6], the “SEAP induction of XIPEXTRA system” value in data set [7] (n = 4) is “ns”; in data set [7] (n = 4, listed as IL‐6), “no apparent induction; also recorded: no detectable activation”.
